Source: paper PMC10815238, “New N-Terminal Fatty-Acid-Modified Melittin Analogs with Potent Biological Activity” (International Journal of Molecular Sciences, 2024)
Converted amounts (≈) assume the structure as drawn.

What was measured:
[1] = tested on: Multidrug-Resistant Escherichia coli (E. coli) Strain; format: cell-based; conditions: NB medium, 37 °C, 18 h, three independent measurements
Description: The standard strains of S. aureus ATCC 43300, E. faecalis ATCC 29212, E. coli ATCC 25922, and P. aeruginosa ATCC 27853 were obtained from the American Type Culture Collection (ATCC). L. monocytogenes CVCC 3764 and B. cereus CVCC 4101 were obtained from the National Center for Veterinary Culture Collection (CVCC). S. castellani CGMCC 1.1869 was obtained from the China General Microbiological Culture Collection Center. The multidrug-resistant strain Escherichia coli was obtained from the research base of the Chongqing Academy of Animal Sciences (Chongqing, China). All strains were cultured in nutrient broth overnight at 37 °C to a logarithmic growth phase before each experiment.
MIC was determined using the broth microdilution method with minor modification. In brief, bacteria (S. aureus ATCC 43300, E. faecalis ATCC 29212, E. coli ATCC 25922, P. aeruginosa ATCC 27853, L. monocytogenes CVCC 3764, B. cereus CVCC 4101, S. Castellani CGMCC 1.1869, and the multidrug-resistant E. coli strain) were cultured in nutrient broth (NB) medium (Macklin, Shanghai, China) to the logarithmic phase and diluted to 1 × 10^6 colony forming units (CFUs)/mL. The MDLs were dissolved to a final concentration of 256~0.25 μg/mL in NB medium using two-fold dilutions. […]

[2] = fetal bovine serum, human serum, and human plasma; cited from earlier work
Description: However, binding with serum albumin would weaken the detection of the free MDLs and reduce their antibacterial activity.

[3] = tested on: Shigella castellani (S. castellani) CGMCC 1.1869; format: cell-based; conditions: NB medium, 37 °C, 18 h, three independent measurements
Method: (§1) MIC was determined using the broth microdilution method with minor modification. In brief, bacteria (S. aureus ATCC 43300, E. faecalis ATCC 29212, E. coli ATCC 25922, P. aeruginosa ATCC 27853, L. monocytogenes CVCC 3764, B. cereus CVCC 4101, S. Castellani CGMCC 1.1869, and the multidrug-resistant E. coli strain) were cultured in nutrient broth (NB) medium (Macklin, Shanghai, China) to the logarithmic phase and diluted to 1 × 10^6 colony forming units (CFUs)/mL. The MDLs were dissolved to a final concentration of 256~0.25 μg/mL in NB medium using two-fold dilutions. A total of 50 μL of different concentrations of the MDL solutions and an equal volume of bacterial suspension were added to a 96-well plate, which was then incubated at 37 °C for 18 h. The minimum concentrations of the MDLs with no visible growth of bacteria were defined as the corresponding MICs. Media containing bacteria without the MDLs were set as the negative control. Each measurement was performed independently three times.

[4] = tested on: Enterococcus faecalis (E. faecalis) ATCC 29212; format: cell-based; conditions: NB medium, 37 °C, 18 h, three independent measurements
Method: as §1

[5] = tested on: Bacillus cereus (B. cereus) CVCC 4101; format: cell-based; conditions: NB medium, 37 °C, 18 h, three independent measurements
Method: as §1

[6] = tested on: swine erythrocytes; test: Hemolytic activity assay; format: cell-based; conditions: swine erythrocytes in PBS, 1 h, 37 °C; concentration more than 4 μg/mL
Method: The hemolytic activity of the MDLs was evaluated as described previously with minor modification. Swine erythrocytes were collected by centrifugation at 1000 rpm for 5 min, washed three times, and suspended to a final concentration of 8% vol/vol with PBS (Macklin, Shanghai, China). Equal volumes of erythrocyte suspension and the MDLs solutions at various concentrations were mixed in a 96-well plate and incubated for 1 h at 37 °C. After centrifugation at 1000 rpm for 10 min, the supernatant was transferred to a 96-well plate. The supernatant optical density (OD) was measured at 490 nm using a microplate reader (BioTek, Winooski, VT, USA). Untreated erythrocytes and erythrocytes treated with 1% Triton X-100 (Merck, Darmstadt, Germany) were employed as the negative and positive controls, respectively. The hemolysis percentage was calculated using the following equation: Hemolysis rate%=OD490(lipopeptide)−OD490(PBS)/OD490(1% Triton X-100)−OD490(PBS)×100%

[7] = tested on: human red blood cells; conditions: cited from earlier work
Method: (§2) Despite its multiple potential biological activities, the applications for melittin are limited due to its severe hemolytic activity and low proteolytic stability. Melittin results in 50% hemolysis of human red blood cells at a concentration of 2 μM and 100% at 7 μM [19].

[8] = tested on: trypsin; conditions: cited from earlier work
Method: as §2

[9] = tested on: pepsin; conditions: after 2 h of incubation; cited from earlier work
Description: Poor protease stability is one of the main factors that has limited melittin’s clinical application.

CC[C@H](C)[C@H](NC(=O)CN)C(=O)NCC(=O)N[C@@H](C)C(=O)N[C@H](C(=O)N[C@@H](CC(C)C)C(=O)N[C@@H](CCCCN)C(=O)N[C@H](C(=O)N[C@@H](CC(C)C)C(=O)N[C@H](C(=O)N[C@H](C(=O)NCC(=O)N[C@@H](CC(C)C)C(=O)N1CCC[C@H]1C(=O)N[C@@H](C)C(=O)N[C@@H](CC(C)C)C(=O)N[C@H](C(=O)N[C@@H](CO)C(=O)N[C@@H](Cc1c[nH]c2ccccc12)C(=O)N[C@H](C(=O)N[C@@H](CCCCN)C(=O)N[C@@H](CCCNC(=N)N)C(=O)N[C@@H](CCCCN)C(=O)N[C@@H](CCCNC(=N)N)C(=O)N[C@@H](CCC(N)=O)C(=O)N[C@@H](CCC(N)=O)C(N)=O)[C@@H](C)CC)[C@@H](C)CC)[C@@H](C)O)[C@@H](C)O)C(C)C)C(C)C [Mel, Melittin]
MIC [1]: 64 µg/mL (≈ 22.5 µM)
stability in serum and plasma [2]: stable
MIC [3]: 32 µg/mL (≈ 11.2 µM)
MIC [4]: 16 µg/mL (≈ 5.62 µM)
MIC [5]: 16 µg/mL (≈ 5.62 µM)
hemolysis rate [6]: rapidly increased
concentration resulting in 50% hemolysis [7]: 2 µM
concentration resulting in 100% hemolysis [7]: 7 µM
melittin left after incubation with trypsin ([8]; after 60 min of incubation): almost no melittin is left
digestion by trypsin [8]: digested rapidly
degradation by pepsin [9]: entirely degraded
